This note sets out measurements from patent publication US6528251B2, “Method of managing the chemotherapy of patients who are HIV positive based on the phenotypic drug sensitivity of human HIV strains” (Virco N.V., priority 1996, dated 2003).

What all share (format): cell-based, HIV-1
Experiment [1] has as its system recombinant virus from patient viral RNA (Example 8). Kind of experiment: Recombinant virus assay (MT4/MTT), patient of Example 8 (therapy history AZT, 3TC and loviride). The conditions noted are these: for IC50: Human immunodeficiency virus 1, Table 4, Example 8 patient virus; for ratio (1)/(2): Table 4, patient mean IC50 / recIIIB IC50, Example 8. As to the method:
(§1) RNA was isolated from 100 μl of plasma according to the method described by Boom, R. et al. (1990, supra), and was reverse transcribed with the GeneAmp reverse transcriptase kit (Perkin Elmer) as described by the manufacturer and using an HIV-1 specific downstream primer (OUT3: 5′-CATTGCTCTCCAATTACTGTGATATTTCTCATC-3′; SEQ ID NO: 1). PCR on reverse transcribed RNA was performed with inner and outer primers as described by Kellam, P. and Larder, B. A. (1994, supra). After chloroform extraction and centrifugation on Centricon 100 columns or centrifugation on anion-exchange spin columns (Quiagen), the isolated PCR product was ready for use in the transfection reactions.
(§2) MT4 cells were subcultured at a density of 250,000 cells/ml before transfection (exponential growth phase). Cells were pelleted and resuspended in phosphate buffered saline (PBS) at a concentration of […]. A 0.8 ml portion (2.5 10E6 cells/ml) was used for each transfection. Transfection was performed with the Bio-Rad Gene pulser making use of 0.4 cm electrode cuvettes. Cells were electroporated in the presence of […] of linearised pHIVΔRT plasmid and approximately 5 μg of RT PCR product at 250SF and 300 V, followed by a 30-min incubation at room temperature. Subsequently, 10 ml of fresh culture medium was added to the cell suspension and incubation was performed at 37° C. in a humidified atmosphere of 5% CO2.
(§3) During 7 to 10 days following the transfection, cells were monitored for the appearance of cytopathogenic effect (CPE). In the absence thereof, cells were subcultured in different flasks. Subsequently, culture supernatants of transfected cells were used to create a stock of recombinant virus and stored in 1.5 ml aliquots at −70° C.
(§4) After titration of the new viruses, the stocks were used for antiviral experiments in the presence of serial dilutions of different HIV inhibitors. Titres of the harvested supematants were determined by limited serial dilution titration of virus in MT4 cells.
(§5) Viruses with a useful titre were used in antiviral experiments. For this purpose, 96-well microtitre plates were filled with 100μl of complete culture medium. Subsequently, stock solutions of compounds were added in 25 μl volumes to series of duplicate wells. HIV- and mock-infected cell samples were included for each drug (or drug combination). Exponentially growing MT4 cells were then transferred to the microtitre plates at a density of 150,000 cells/ml. The cell cultures were then incubated at 37° C. in a humidified atmosphere of 5% CO2. Five days after infection, the viability of the mock- and HIV-infected cells was examined spectrophotometrically by the M1T method (Pauwels, R. et al. J. Virol. Meth. (1988), 20: 309-321) as described in Section 6 below.
(§6) To each well of the microtiter plates, 20 μl of a solution of MTT (7.5 mg/ml in PBS) was added. The plates were further incubated at 37° C. for 1 h. Then, 150 μl of medium was removed without disturbing the MT4 cell clusters containing the formazan crystals. Solubilization of the formazan crystals was achieved by adding 100 μl 5% Triton X-100 in acidified isopropanol (5 ml concentrated HCl per liter solvent). Complete dissolution of the formazan crystals was obtained after the plates had been placed on a plate shaker for 10 min. Finally the absorbances were read at two wavelengths (540 and 690 nm). From these optical density (OD) data, 50% inhibitory (IC50) and 50% cytotoxic (CC50) concentrations were derived.
An HIV-infected patient with a therapy history including AZT, 3TC and loviride donated plasma whose susceptibility to a number of RT inhibitors was determined according to the protocol set out in Example 1. Recombinant wild type HIV strain recIIIB was used as a reference HIV virus.

In experiment [2] the test system is Recombinant wild type HIV strain recIIIB. The experiment in a line: Antiviral MT4/MTT assay with reference virus recIIIB. To be noted: read-out: Anti-HIV-1 activity IC50 (μM) recIIIB ref (2). As for the experimental part: as §4, §5, §6
Background: Formazan colour is commonly taken as a measure of viable cells.

Experiment [3] relates to recombinant virus from patient viral RNA (Example 7, drug-naive patient). The experiment in a line: Recombinant virus assay (MT4/MTT), drug-naive patient of Example 7. To be noted: for IC50: Human immunodeficiency virus 1, Table 3, Example 7 patient virus; for ratio (1)/(2): Table 3, patient mean IC50 / recIIIB IC50, Example 7. As for the experimental part: as §1, §2, §3, §4, §5, §6
A drug-naive HIV-infected patient donated plasma whose susceptibility to a number of RT inhibitors was determined according to the protocol set out in Example 1. Recombinant wild type HIV strain recIIIB was used as a reference HIV virus.

Experiment [4] deals with recombinant virus from patient viral RNA (Example 9). Kind of experiment: Recombinant virus assay (MT4/MTT), patient of Example 9 (multiple nucleoside analogue RT-inhibitors). The conditions noted are these: for IC50: Human immunodeficiency virus 1, Table 5, Example 9 patient virus; for ratio (1)/(2): Table 5, patient mean IC50 / recIIIB IC50, Example 9. As for the experimental part:
as §1, §2, §3, §4, §5, §6
An HIV-infected patient with a therapy history including multiple nucleoside analogue RT-inhibitors donated plasma whose susceptibility to a number of RT inhibitors was determined according to the protocol set out in Example 1. Recombinant wild type HIV strain recIIIB was used as a reference HIV virus.

Experiment [5] concerns recombinant virus from patient viral RNA (Example 5, 3TC resistant HIV strains). Kind of experiment: Recombinant virus assay (MT4/MTT), patient of Example 5 (AZT, then AZT+3TC therapy). The conditions noted are these: for IC50: Human immunodeficiency virus 1, Table 1, Example 5 patient virus; for ratio (1)/(2): Table 1, patient mean IC50 / recIIIB IC50, Example 5. As to the method: as §1, §2, §3, §4, §5, §6
An HIV infected patient who received AZT from December 1989 until an undocumented later date, and switched to a combined chemotherapy of AZT+3TC (1:1) from February 1994 until October 1995 donated plasma whose susceptibility to a number of RT inhibitors was determined according to the above described protocol of Example 1. Recombinant wild type HIV strain recIIIB was used in said protocol as a reference HIV virus.

Where [6] appears, read: MT4 cells, read-out: Anti-HIV-1 activity IC50 (μM) Exp. 1.
[7] abbreviates: MT4 cells, read-out: Anti-HIV-1 activity IC50 (μM) Exp. 2.
The mark [8] stands for this setting: mean, read-out: Anti-HIV-1 activity IC50 (μM) Mean (1).
Where [9] appears, read: Human immunodeficiency virus 1, Table 1, reference run of Example 5.
The mark [10] stands for this setting: Human immunodeficiency virus 1, Table 3, reference run of Example 7.
Where [11] appears, read: Human immunodeficiency virus 1, Table 4, reference run of Example 8.
[12] abbreviates: Human immunodeficiency virus 1, Table 5, reference run of Example 9.
The mark [13] stands for this setting: mean of Exp. 1 and 2, read-out: Anti-HIV-1 activity IC50 (μM) Mean (1).

Each structure is given as a SMILES string. Like-named read-outs stand apart in the source and are kept apart here.

The term IC50 denotes the point on the concentration scale where inhibition reaches its midpoint. Turning to `CC(C)=CCN1Cc2c(Cl)ccc3[nH]c(=S)n(c23)C[C@@H]1C` [tivirapine], the IC50 stood at 1.63 µM in experiment [1] (setting [6]); 1.6 µM in experiment [1] (setting [7]); 1.61 µM in experiment [1] (setting [8]); 0.01 µM in experiment [2] (setting [9]); 0.021 µM in experiment [2] (setting [10]); 0.021 µM in experiment [2] (setting [11]). Also, the half-inhibitory concentration (IC50) is 0.042 µM in experiment [2] (setting [12]); 0.042 µM in experiment [3] (setting [6]); 0.049 µM in experiment [3] (setting [7]); 0.046 µM in experiment [3] (setting [8]); 0.052 µM in experiment [4] (setting [6]); 0.043 µM in experiment [4] (setting [7]). The IC50 stood at 0.048 µM in experiment [4] (setting [8]), 0.019 µM in experiment [5] (setting [6]), 0.018 µM in experiment [5] (setting [7]) and 0.019 µM in experiment [5] (setting [13]). In addition, the “ratio (1)/(2)” value came out at 78 in experiment [1], 2 in experiment [3], 1 in experiment [4] and 1.5 in experiment [5].

As to `CC(=O)c1ccc(C)cc1NC(C(N)=O)c1c(Cl)cccc1Cl` (stereo not shown) [loviride], the IC50 in experiment [1] (setting [6]) was over 100 µM; in experiment [1] (setting [7]) it was over 100 µM; in experiment [1] (setting [8]), over 100 µM; in experiment [2] (setting [9]), 0.05 µM; in experiment [2] (setting [10]), 0.024 µM; in experiment [2] (setting [11]), 0.037 µM. Further, the IC50 in experiment [2] (setting [12]) worked out at 0.065 µM; in experiment [3] (setting [6]), 0.035 µM; in experiment [3] (setting [7]), 0.025 µM; in experiment [3] (setting [8]) it was 0.03 µM; in experiment [4] (setting [6]), 0.064 µM; in experiment [4] (setting [7]) it was 0.058 µM. Also, the half-maximal inhibitory concentration (IC50) in experiment [4] (setting [8]) worked out at 0.061 µM; in experiment [5] (setting [6]), 0.1 µM; in experiment [5] (setting [7]), 0.12 µM; in experiment [5] (setting [13]) it was 0.11 µM. For the same molecule, the “ratio (1)/(2)” value in experiment [1] was over 2717; in experiment [3] it was 1; in experiment [4], 0.9; in experiment [5], 2.
